# Patent publication US8158792B2, “Spiropiperidines for use as tryptase inhibitors” (Janssen Pharmaceutica N.V., priority 2007, dated 2012)
# Molecular target: human lung tryptase
# Assay: β-Tryptase In-Vitro Enzyme Assay
# Format: biochemical
# Conditions: human lung tryptase 1 nM, substrate H-D-HHT-Ala-Arg-pNa 500 μM, pH 7.4, room temperature
# Protocol: The β-tryptase assay was conducted with human lung tryptase (Cortex Biochem #CP3033) in an aqueous buffer (10 mM Tris, 10 mM Hepes, 150 mM NaCl, 0.1% PEG 8000, pH 7.4) using the chromogenic substrate H-D-HHT-Ala-Arg-pNa. […] Percent inhibition was calculated by comparing the initial reaction velocity of samples without inhibitor to those with inhibitor. The initial reaction velocities were analyzed using Microsoft Excel.
row,IC50 [nM],Compound
1,180,"NCc1ccc2c(c1)C1(CCN(C(=O)/C=C/c3ccccc3Br)CC1)CO2 [Cpd 199, (E)-1-(2-bromo-phenylethenyl)carbonyl-5′-aminomethyl-spiro[piperidine-4,3′-(2H)-benzo[b]furan]]"
2,4100,"NCc1ccc2c(c1)C1(CCN(C(=O)c3cc4cc(C(F)(F)F)ccc4s3)CC1)CO2 [Cpd 200, 1-(5-trifluoromethyl-benzo[b]thien-2-yl)carbonyl-5′-aminomethyl-spiro[piperidine-4,3′-(2H)-benzo[b]furan]]"
3,45,"COc1ccc(-c2c(C(=O)N3CCC4(CC3)COc3ccc(CN)cc34)sc(SC)c2C#N)cc1 [Cpd 201, 1-[3-(4-methoxy-phenyl)-4-cyano-5-methylthio-thien-2-yl]carbonyl-5′-aminomethyl-spiro[piperidine-4,3′-(2H)-benzo[b]furan]]"
4,51,"CSc1sc(C(=O)N2CCC3(CC2)COc2ccc(CN)cc23)c(-c2ccc(Cl)cc2)c1C#N [Cpd 202, 1-[3-(4-chloro-phenyl)-4-cyano-5-methylthio-thien-2-yl]carbonyl-5′-aminomethyl-spiro[piperidine-4,3′-(2H)-benzo[b]furan]]"
5,280,"NCc1ccc2c(c1)C1(CCN(C(=O)c3scc4c3CCCC4)CC1)CO2 [Cpd 203, 1-(5,6,7-trihydro-4H-benzo[c]thien-1-yl)carbonyl-5′-aminomethyl-spiro[piperidine-4,3′-(2H)-benzo[b]furan]]"
6,89,"NCc1ccc2c(c1)C1(CCN(C(=O)c3cc4sccc4s3)CC1)CO2 [Cpd 204, 1-thieno[3,2-b]thien-2-ylcarbonyl-5′-aminomethyl-spiro[piperidine-4,3′-(2H)-benzo[b]furan]]"
7,740,"CC(=O)N/C(=C\c1ccccc1)C(=O)N1CCC2(CC1)COc1ccc(CN)cc12 [Cpd 205, (Z)-1-(1-methylcarbonylamino-2-phenylethenyl)carbonyl-5′-aminomethyl-spiro[piperidine-4,3′-(2H)-benzo[b]furan]]"
8,260,"Cc1nc(-c2ccc(C(=O)N3CCC4(CC3)COc3ccc(CN)cc34)s2)cs1 [Cpd 206, 1-[5-(2-methyl-thiazol-4-yl)-thien-2-yl]carbonyl-5′-aminomethyl-spiro[piperidine-4,3′-(2H)-benzo[b]furan]]"
9,1500,"Cc1ccc2c(Cl)c(C(=O)N3CCC4(CC3)COc3ccc(CN)cc34)sc2c1 [Cpd 207, 1-(3-chloro-6-methyl-benzo[b]thien-2-yl)carbonyl-5′-aminomethyl-spiro[piperidine-4,3′-(2H)-benzo[b]furan]]"
10,12,"Cc1ccccc1Oc1cccc(CC(=O)N2CCC3(CC2)COc2ccc(CN)cc23)c1 [Cpd 208, 1-[3-(2-methyl-phenoxy)-benzyl]carbonyl-5′-aminomethyl-spiro[piperidine-4,3′-(2H)-benzo[b]furan]]"
11,330,"COc1ccc2c(Cl)c(C(=O)N3CCC4(CC3)COc3ccc(CN)cc34)sc2c1 [Cpd 209, 1-(3-chloro-6-methoxy-benzo[b]thien-2-yl)carbonyl-5′-aminomethyl-spiro[piperidine-4,3′-(2H)-benzo[b]furan]]"
12,26,"NCc1ccc2c(c1)C1(CCN(C(=O)Cc3cccc(Oc4ccccc4F)c3)CC1)CO2 [Cpd 210, 1-[3-(2-fluoro-phenoxy)-benzyl]carbonyl-5′-aminomethyl-spiro[piperidine-4,3′-(2H)-benzo[b]furan]]"
13,17,"CCCSc1sc(C(=O)N2CCC3(CC2)COc2ccc(CN)cc23)c2c1C(=O)CCC2 [Cpd 211, 1-(3-propylthio-4-oxo-5,6,7-trihydro-4H-benzo[c]thien-1-yl)carbonyl-5′-aminomethyl-spiro[piperidine-4,3′-(2H)-benzo[b]furan]]"
14,370,"CCCc1ccc(OCc2ccc(C(=O)N3CCC4(CC3)COc3ccc(CN)cc34)o2)c(OC)c1 [Cpd 212, 1-[5-(2-methoxy-4-propyl-phenoxymethyl)-furan-2-yl]carbonyl-5′-aminomethyl-spiro[piperidine-4,3′-(2H)-benzo[b]furan]]"
15,240,"NCc1ccc2c(c1)C1(CCN(C(=O)c3ccc(COc4ccccc4Br)o3)CC1)CO2 [Cpd 213, 1-[5-(2-bromo-phenoxymethyl)-furan-2-yl]carbonyl-5′-aminomethyl-spiro[piperidine-4,3′-(2H)-benzo[b]furan]]"
16,6.5,"NCc1ccc2c(c1)C1(CCN(C(=O)c3sc(SCc4ccccc4)c4c3CCCC4=O)CC1)CO2 [Cpd 214, 1-(3-benzylthio-4-oxo-5,6,7-trihydro-4H-benzo[c]thien-1-yl)carbonyl-5′-aminomethyl-spiro[piperidine-4,3′-(2H)-benzo[b]furan]]"
17,760,"NCc1ccc2c(c1)C1(CCN(C(=O)C=C3OC(=O)c4ccccc43)CC1)CO2 [Cpd 215, 1-[1-oxo-2-(3-oxo-3H-isobenzofuran-1-ylidene)-ethyl]-5′-aminomethyl-spiro[piperidine-4,3′-(2H)-benzo[b]furan]]"

row,IC50 [nM],Compound
1,1700,"NCc1ccc2c(c1)C1(CCN(C(=O)c3ccc(CN4CCOCC4)o3)CC1)CO2 [Cpd 216, 1-(5-morpholin-4-ylmethyl-furan-2-yl)carbonyl-5′-aminomethyl-spiro[piperidine-4,3′-(2H)-benzo[b]furan]]"
2,650,"NCc1ccc2c(c1)C1(CCN(C(=O)c3snnc3-c3ccccc3)CC1)CO2 [Cpd 217, 1-(4-phenyl-[1,2,3]thiadiazol-5-yl)carbonyl-5′-aminomethyl-spiro[piperidine-4,3′-(2H)-benzo[b]furan]]"
3,8,"CSc1sc(C(=O)N2CCC3(CC2)COc2ccc(CN)cc23)c2c1CCCC2 [Cpd 218, 1-(3-methylthio-5,6,7-trihydro-4H-benzo[c]thien-1-yl)carbonyl-5′-aminomethyl-spiro[piperidine-4,3′-(2H)-benzo[b]furan]]"
4,2.9,"CSc1sc(C(=O)N2CCC3(CC2)COc2ccc(CN)cc23)c2c1C=CCC2 [Cpd 219, 1-(3-methylthio-7-hydro-6H-benzo[c]thien-1-yl)carbonyl-5′-aminomethyl-spiro[piperidine-4,3′-(2H)-benzo[b]furan]]"
5,690,"Cc1occc1C(=O)NCc1ccc(C(=O)N2CCC3(CC2)COc2ccc(CN)cc23)o1 [Cpd 220, 1-[5-(2-methyl-furan-3-yl-carbonylaminomethyl)-furan-2-yl]carbonyl-5′-aminomethyl-spiro[piperidine-4,3′-(2H)-benzo[b]furan]]"
6,550,"Cc1nn(-c2ccc(C(=O)N3CCC4(CC3)COc3ccc(CN)cc34)o2)c(C)c1Cl [Cpd 221, 1-[5-(3,5-dimethyl-4-chloro-pyrazol-1-yl)-furan-2-yl]carbonyl-5′-aminomethyl-spiro[piperidine-4,3′-(2H)-benzo[b]furan]]"
7,260,"Cc1c(C(=O)N2CCC3(CC2)COc2ccc(CN)cc23)oc2c1C(=O)CC(c1ccccc1)C2 (stereo not drawn) [Cpd 222, 1-(3-methyl-4-oxo-6-phenyl-5,6,7-trihydro-4H-benzo[b]furan-2-yl)carbonyl-5′-aminomethyl-spiro[piperidine-4,3′-(2H)-benzo[b]furan]]"
8,21,"CCSc1sc(C(=O)N2CCC3(CC2)COc2ccc(CN)cc23)c2c1C(=O)CC(C)(C)C2 [Cpd 223, 1-(3-ethylthio-4-oxo-6,6-dimethyl-6,7-dihydro-5H-benzo[c]thien-1-yl)carbonyl-5′-aminomethyl-spiro[piperidine-4,3′-(2H)-benzo[b]furan]]"
9,280,"C=CCc1ccc(OCc2ccc(C(=O)N3CCC4(CC3)COc3ccc(CN)cc34)o2)c(OC)c1 [Cpd 224, 1-[5-(2-methoxy-4-allyl-phenoxymethyl)-furan-2-yl]carbonyl-5′-aminomethyl-spiro[piperidine-4,3′-(2H)-benzo[b]furan]]"
10,47,"CC(C)Sc1sc(C(=O)N2CCC3(CC2)COc2ccc(CN)cc23)c2c1C(=O)CC(C)(C)C2 [Cpd 225, 1-(3-isopropylthio-4-oxo-6,6-dimethyl-6,7-dihydro-5H-benzo[c]thien-1-yl)carbonyl-5′-aminomethyl-spiro[piperidine-4,3′-(2H)-benzo[b]furan]]"
11,3200,"Cc1c(C#N)sc2sc(C(=O)N3CCC4(CC3)COc3ccc(CN)cc34)c(C)c12 [Cpd 226, 1-(3,4-dimethyl-5-cyano-thieno[2,3-b]thien-2-yl)carbonyl-5′-aminomethyl-spiro[piperidine-4,3′-(2H)-benzo[b]furan]]"
12,44,"COc1cccc(OCc2ccc(C(=O)N3CCC4(CC3)COc3ccc(CN)cc34)o2)c1 [Cpd 227, 1-[5-(3-methoxy-phenoxymethyl)-furan-2-yl]carbonyl-5′-aminomethyl-spiro[piperidine-4,3′-(2H)-benzo[b]furan]]"
13,37,"Cc1c(C(=O)N2CCC3(CC2)COc2ccc(CN)cc23)oc2cc(-c3ccccc3)ccc12 [Cpd 228, 1-(3-methyl-6-phenyl-benzo[b]furan-2-yl)carbonyl-5′-aminomethyl-spiro[piperidine-4,3′-(2H)-benzo[b]furan]]"
14,5.3,"CCCCSc1sc(C(=O)N2CCC3(CC2)COc2ccc(CN)cc23)c2c1C(=O)CCC2 [Cpd 229, 1-(3-butylthio-4-oxo-5,6,7-trihydro-4H-benzo[c]thien-1-yl)carbonyl-5′-aminomethyl-spiro[piperidine-4,3′-(2H)-benzo[b]furan]]"
15,140,"NCc1ccc2c(c1)C1(CCN(C(=O)c3sc4cc(Br)ccc4c3Cl)CC1)CO2 [Cpd 230, 1-(3-chloro-6-bromo-benzo[b]thien-2-yl)carbonyl-5′-aminomethyl-spiro[piperidine-4,3′-(2H)-benzo[b]furan]]"
16,91,"CCC(C)Sc1sc(C(=O)N2CCC3(CC2)COc2ccc(CN)cc23)c2c1C(=O)CC(C)(C)C2 (stereo not drawn) [Cpd 231, 1-(3-sec-butylthio-4-oxo-6,6-dimethyl-6,7-dihydro-5H-benzo[c]thien-1-yl)carbonyl-5′-aminomethyl-spiro[piperidine-4,3′-(2H)-benzo[b]furan]]"
